From patent publication US20020077365A1, “Method for increasing the effectiveness of antiinfective” (The University of Texas System, priority 2000, published 2002)
Where two headings read alike, the source gives them in different places.

Tests used:
[1] = system: S. cerevisiae yeast cells (YMR4 and INVSC, with or without AtPGP-1); assay: Yeast growth in suspension with extracellular ATP, adenosine, phosphate and cycloheximide (turbidity OD600); assay type: cell-based; conditions: for yeast growth in high levels of ATP: 100 mM ATP, FIG. 13; for effect on resistance to cycloheximide: YMR4 cells, added to media with cycloheximide, 72 hours, FIG. 14
Experimental: Cell lines: Cell lines were the same as those described above in Example 2 and 3. YMR4 MDR1 is the phosphatase mutant yeast strain overexpressing AtPGP-1; YMR4 pVT11 contains vector alone; INVSC MDR1 is the wild-type yeast strain overexpressing AtPGP-1; and INVSC pVT101 contains vector alone.
Selection in drug: To create drug resistant yeast strains, all four cell lines were grown up in the presence of 500 ng/ml of cycloheximide, and transferred to other cycloheximide containing plates after a period of four to six days. This transfer of cell lines and subculturing continued such that the yeast cells grew in the presence of cycloheximide for a period of at least a month.
Growth of cells in suspension for ATP and drug selection experiments: Cells were transferred into 5 ml YNB -URA liquid media for turbidity measurements. All cell lines (both non-drug selected and drug-selected) were grown in media with the addition of either nothing, 500 ng/ml cycloheximide, 100 mM ATP, or 500 ng/ml cycloheximide and 100 mM ATP. Turbidity readings were taken after 48 hours.
Growth of cell lines in suspension for salvage pathway experiments: All cell lines were grown in liquid media either containing drug (for the drug selected lines) or not containing drug (for the non-drug selected lines). When the cultures reached a turbidity of 1.00 as measured at a wavelength of 600 in a spectrophotometer (OD600=1.00), 10 μl of each culture was then removed and placed in either media with nothing added, 3 mM potassium phosphate; 3 mM adenosine; 9 mM potassium phosphate and 3 mM adenosine (for controls); potassium phosphate and cycloheximide; adenosine and cycloheximide; adenosine, cycloheximide, and potassium phosphate. Cell cultures were further grown for 72 hours, and their turbidity was determined by OD600 readings on a spectrophotometer.

[2] = system: Arabidopsis thaliana WS wild-type plants; assay: Plant sensitivity to herbicides with or without ecto-phosphatase inhibitor; assay type: in vivo; conditions: inhibitor 5 μg/ml; surflan solution 0.2-20 μl/ml in germination media
Experimental: Increasing Plant Sensitivity to Herbicides: Arabidopsis thaliana WS wild-type plants were plated on germination media containing two commonly used herbicides, surflan and pendimethalin, in the presence and absence of an ecto-phosphatase inhibitor of Formula II and monitored for their growth in a 22° C. incubator under constant fluorescent illumination.
More specifically, germination media was prepared containing 20 μl/ml, 10 μl/ml, 2 μl/ml, 1 μl/ml, and 0.2 μl/ml of a surflan solution made at the manufacturer's recommended concentration. Compound of Formula II was added to a portion of the germination media at a final concentration of 5 μg/ml.
Arabidopsis thahiana WS wild-type seeds were surface sterilized in a 20% bleach solution for 20 minutes, washed three times in double distilled waster, and resuspended in 0.1% agarose solution. The seeds were then pipetted onto plates containing approximately 3 ml of germination media containing the various concentrations of surflan with and without compound of Formula II. All plates were placed in a 22° C. incubator under constant fluorescent illumination. Growth was assessed daily.
Similar experiments were performed with pendimethalin in the presence and absence of compound of Formula II.

[3] = system: ecto-apyrase of plasma membrane of cholinergic nerve terminal of Torpedo marmorata electric organs; conditions: Marti et al., 1996; cited from earlier work
[4] = system: wild-type yeast strain INVSC with plasmid pvtl01-U; assay: Yeast filter disk zone of inhibition with fungicide chlorothalonil with or without ecto-phosphatase inhibitor; assay type: cell-based, S. cerevisiae; conditions: plates without ecto-phosphatase inhibitor, 48 hours
Experimental: Increasing Yeast Sensitivity to Fungicide. Additional experiment were performed to test the ability of ecto-phosphatase inhibitors to increase the effectiveness of the commonly used fungicide chlorothalonil. Yeast was plated on media with or without an ecto-phosphatase inhibitor of Formula X where a paper filter disk soaked in the fungicide was added to the plate. After 48 hours, the zone of inhibition of yeast growth around the filter disk was calculated.
The wild-type yeast strain INVSC with plasmid pvtl01-U (for selection on media lacking uracil) was used in all experiments and each experiment was performed in triplicate. Media used was made by combining YNB (Bio 101, Vista, Calif.), the drop out supplement CSM-URA (Bio 101, Vista, CA), and glucose in water. […]
Twenty μl of an overnight saturated culture of yeast was plated onto each plate, spread, and allowed to dry for 20 minutes. […] The zone of inhibition of yeast growth around the disk was assessed after 48 hours.
Plates with chlorothalonil disks indeed contained a zone of inhibition surrounding the disk. […] The zone of inhibition was calculated by measuring the radius from the center of the disk to the point of noticeable yeast growth (at least 10 measurements per plate), averaging the radii measurements, and using the average radius of the plates to calculate the circular area of the zone of inhibition.

[5] = system: Arabidopsis thaliana plants (wild-type and AtPGP-1 overexpressing); assay type: in vivo; conditions: for germination rate: substance alone (cycloheximide 500 ng/ml or phosphatase inhibitor 1 mM), after 10-20 days; for germination: phosphatase inhibitor 1 mM plus cycloheximide 500 ng/ml
Experimental: Plant Growth: Arabidopsis seeds were sown in a solid germination media containing MS salts (Sigma Chemical, St. Louis, Mo.), 2% sucrose, 0.8% agar, and vitamins (Valvekens et al., 1992). For selection assays, one of the following, or a combination of both, was added to media (cooled to less than 50° C. before adding) immediately prior to pouring into plates: cycloheximide at a final concentration of 500 ng/ml; α,β-methyleneadenosine 5′-diphosphate at a final concentration of 1 mM. Plant growth was measured by germination percentage after 10-20 days. All other materials and methods were discussed above in Example 2.

[6] = system: Saccharomyces cerevisiae INVSC1 and YMR4; assay: Yeast growth selection in drug (plates / liquid turbidity); assay type: cell-based
Excerpt: Expression of AtPGP-1 in yeast: The AtPGP-1 cDNA (Arabidopsis thaliana MDR gene, accession #X61370) was subdloned into pVT101 downstream of the ADH promoter to create the AtPGP-1/pVT101 construct. AtPGP-1/pVT101 and pVT101 were transformed into Saccharomyces cerevisiae INVSC1 (genotype: MAT, his3-1, leu2, trp1-289, ura3-52) and YMR4 (genotype: MAThis3-11,15, leu2-3, 112ura35, can Res pho5, 3::ura31) by a PEG lithium acetate procedure (Eble, 1992) and selected on uracil dropout medium.
Yeast Growth: Yeast were grown at 30° C. under conditions of constant selection for uracil auxotrophy. YNB (Bio101, Vista, Calif.) supplemented with CSM (uracil dropout) and 2% glucose was used to grow strains having pVT101 constructs. Cycloheximide (Sigma Chemical, St. Louis, Mo.) was added to liquid media or spread on solid media to achieve a final concentration of 500 ng/ml. Nigericin (Sigma Chemical, St. Louis, Mo.) was added to liquid media or spread on solid media to achieve a final concentration of 25 μg/ml. Yeast strains used in cycloheximide selection assays were always propagated in the presence of the cycloheximide on plates and then streaked onto new plates containing drug or no drug, such that induced resistance existed in each strain at the time of the start of the assay. For selection assays on plates, single colonies were streaked; for selection in liquid media 0.01 ml of saturated culture was added to fresh media containing the drug. The plates shown in figures were grown for 3-5 days before photographs were taken. Yeast selection assays in liquid media were quantitated by turbidity as measured by absorbance at OD600.
The same result was obtained when the yeast strains were cultured in nigericin (FIG. 3C, FIG. 3D, FIG. 5B, FIG. 5C). In FIG. 3C and 3D, starting from the top of the dish clockwise, the cells are as follows: INVSC1 (wild-type) overexpressing AtPGP-1, YMk4 containing the vector alone, YMR4 overexpressing AtPGP-I, and INVSC1 containing the vector alone. When grown without drug, all the cells grow (FIG. 3C). […]

[7] = YMR4 (extracellular phosphatase deficient), vector alone, cycloheximide 500 ng/ml or nigericin 25 μg/ml

Nc1ncnc2c1ncn2[C@@H]1O[C@H](COP(=O)(O)OP(=O)(O)OP(=O)(O)O)[C@@H](O)[C@H]1O [ATP]
yeast growth in high levels of ATP and drug ([1]; 100 mM ATP plus 500 ng/ml cycloheximide, cell lines previously resistant to drug): unable to grow
yeast growth in high levels of ATP ([1]; cells not previously selected in drug): able to grow
yeast growth in high levels of ATP ([1]; cells previously grown in drug (cycloheximide-selected), not overexpressing AtPGP-1): not able to grow

Cc1cccc(NS(=O)(=O)c2ccc(-c3ccccc3)cc2)c1 [Formula II]
effectiveness of surflan as weed killer in presence of inhibitor [2]: equally effective weed killer at a five fold less concentration

Cc1ccc(C(=O)Nc2ccc(S(=O)(=O)O)c3cc(S(=O)(=O)O)cc(S(=O)(=O)O)c23)cc1NC(=O)c1cccc(NC(=O)Nc2cccc(C(=O)Nc3cc(C(=O)Nc4ccc(S(=O)(=O)O)c5cc(S(=O)(=O)O)cc(S(=O)(=O)O)c45)ccc3C)c2)c1 [Suramin, 8,8′[Carbonylbis[imino-3,1-phenylenecarbonylimino(4-methyl-3,1-phenylene)carbonylimino]]bis-1,3,5-naphthalenetrisulfonic acid]
inhibition of ecto-apyrase activity [3]: potent non-competitive inhibitor

Nc1ncnc2c1ncn2[C@@H]1O[C@H](CO)[C@@H](O)[C@H]1O [adenosine]
effect on resistance to cycloheximide [1]: did not enhance resistance

N#Cc1c(Cl)c(Cl)c(Cl)c(C#N)c1Cl [chlorothalonil]
average radius of inhibition [4]: 0.33 in.

C[C@@H]1C[C@@H]([C@H](O)CC2CC(=O)NC(=O)C2)C(=O)[C@@H](C)C1 [cycloheximide]
germination rate ([5]; AtPGP-1 overexpressing plants): 50%
germination rate ([5]; wild-type plants): 2%
yeast growth in drug [6, 7]: did not grow
yeast growth in drug ([6]; wild-type INVSC1, cycloheximide 500 ng/ml): did grow

CO[C@@H]1C[C@@H](C[C@H]2CC[C@H](C)[C@H]([C@@H](C)C(=O)O)O2)O[C@]2(O[C@](C)([C@H]3CC[C@@](C)([C@@H]4O[C@@H]([C@H]5O[C@@](O)(CO)[C@H](C)C[C@@H]5C)C[C@@H]4C)O3)C[C@H]2C)[C@@H]1C [nigericin]
yeast growth in drug [6, 7]: reduced growth

O=P(O)(O)O [phosphate, potassium phosphate]
effect on resistance to cycloheximide [1]: did not enhance resistance

Nc1ncnc2c1ncn2[C@@H]1O[C@H](COP(=O)(O)CP(=O)(O)O)[C@@H](O)[C@H]1O [α,β-methyleneadenosine 5′-diphosphate]
germination ([5]; AtPGP-1 overexpressing plants): no germination at all
germination rate ([5]; AtPGP-1 overexpressing plants): 83%
germination ([5]; wild-type plants): no germination at all
germination rate ([5]; wild-type plants): 90%
